≈ marks a conversion by molar mass, not a printed value. A value given as a limit tells only on which side of the number the result lay.

The conditions of the data set: buffer; pH 7.4; 200.0 µM.
As to `O=S1(=O)CCN(OCc2ccc(Cl)cc2)CC1`, the kinetic solubility was > 41.4 µg/mL.
Then `Cc1ccc2cc(C#N)c(N3CCN(C(=O)c4ccccc4)CC3)nc2c1`, with 4.1 µg/mL (≈ 11.5 µM).
The result for `CC(=NCCc1ccccc1)c1c(O)n(C)c(=O)n(C)c1=O` reads 37.2 µg/mL (≈ 123 µM).
The result for `CC1=CC(=C(C#N)C#N)C=C(C)N1CCN1CCNCC1` reads > 42.5 µg/mL; that for `O=c1oc2ccccc2nc1/C=C(\O)c1ccccc1`, 21.4 µg/mL (≈ 80.7 µM); that for `O=C(O)/C=C/C(=O)Nc1c(F)cccc1F`, 27.1 µg/mL (≈ 119 µM).
On to `Nc1ccc(CCn2ccnc2)cc1`, for which the kinetic solubility is > 28.1 µg/mL.
Then `Cc1ccc(N2C(=O)[C@@H]3C(c4cccnc4)=NO[C@@H]3C2=O)c(C)c1`, with > 48.2 µg/mL; and `COc1ccc(S(=O)(=O)N2CCCCCC2)cc1N`, with > 42.7 µg/mL; and `COC(=O)C1=C(N)Oc2c(oc(CO)cc2=O)C1c1ccc(F)cc1` (stereo not drawn), with > 52.1 µg/mL.
Then `C=CCN(c1ccccc1OC)S(=O)(=O)c1cccc(C(=O)OCC(=O)N2CC(C)OC(C)C2)c1` (stereo not drawn), with 52.7 µg/mL (≈ 105 µM).
The result for `CCNC(=O)N1CCCC(C(=O)c2ccc(OC)c(OC)c2)C1` (stereo not drawn) reads 35 µg/mL (≈ 109 µM); that for `N#Cc1ccc(C(=O)OCC(=O)N2CCOCC2)cc1`, > 41.1 µg/mL.
Consider `COc1cccc(NC(=S)N2CCN(S(C)(=O)=O)CC2)c1`, for which the solubility (kinetic) was > 49.4 µg/mL.
Then `O=C1OC(C(=O)NCc2ccccc2)Cc2ccccc21` (stereo not drawn), with 39 µg/mL (≈ 139 µM); and `O=C(O)c1ccc(S(=O)(=O)NC2CCCCCC2)cc1`, with > 44.6 µg/mL.
The result for `Cc1cccc(C)c1NC(=O)C1CCN(S(C)(=O)=O)CC1` reads > 46.6 µg/mL.
The result for `Cc1cccnc1NC(=O)C(c1ccccc1)c1ccccc1` reads > 45.4 µg/mL.
As to `COC(=O)c1ccc(CN2C(=O)NC3(CCC(C)CC3)C2=O)cc1` (stereo not drawn), the solubility (kinetic) was 7.5 µg/mL (≈ 22.7 µM).
The result for `O=C(NCCN1CCOCC1)c1ccccc1Cl` reads > 40.3 µg/mL; that for `O=C(NCc1cccnc1)c1cnc2ccccc2n1`, > 39.6 µg/mL; that for `Cc1ccc(C)c(S(=O)(=O)NC2CCSC2=O)c1` (stereo not drawn), > 42.8 µg/mL.
The result for `CCC(CC)C(=O)c1c[nH]c(C(=O)NCc2ccccn2)c1` reads > 44.9 µg/mL.
In turn, `Cc1cc(OC(=O)N(C)C)nc(-c2ccc(C)c(Cl)c2)n1` yielded a solubility (kinetic) of 22.5 µg/mL (≈ 73.6 µM).
Consider `O=C(c1c(F)cccc1F)N1CCN(CCOc2ccccc2)CC1`, for which the solubility (kinetic) is > 52 µg/mL.
Then `CCCS(=O)(=O)NCCc1csc(-c2ccc(OC)c(OC)c2)n1`, with 51.7 µg/mL (≈ 140 µM).
Then `CN(Cc1cccc(Cl)c1Cl)C(=O)c1cc(S(=O)(=O)N2CCOCC2)ccc1F`, with 5.2 µg/mL (≈ 11.3 µM).
Then `COc1ccc(CCNC(=O)c2cc3c(C)nccc3[nH]c2=O)cc1OC`, with 17.1 µg/mL (≈ 46.5 µM).
In turn, `CCOC(=O)C1CCN(CC(=O)c2ccc(O)c(C)c2O)CC1` returned a solubility (kinetic) of 46.3 µg/mL (≈ 144 µM).
Then `NC(=O)C1CCN(CC(O)COCc2ccccc2Cl)CC1` (stereo not drawn), with > 49 µg/mL; and `Cn1c(-c2ccc(F)cc2)cnc1NCc1ccc(F)cc1F`, with 34.9 µg/mL (≈ 110 µM); and `Cc1ccc(-n2c(-c3ccc(Cl)cc3)c[n+]3c2CCC3)cc1.[Br-]`, with > 58.5 µg/mL.
The result for `COc1ccc(NC(=S)N2CCC(Cc3ccccc3)CC2)cc1OC` reads 2.4 µg/mL (≈ 6.48 µM); that for `Cc1noc2ncnc(N3CCCC3)c12`, > 30.6 µg/mL; that for `COCC(=O)Nc1ccc2nc3n(c(=O)c2c1)CCCCC3`, 41.7 µg/mL (≈ 138 µM).
In turn, `O=C(CN1C(=O)CCS(=O)(=O)c2ccccc21)NCCc1ccccc1` came in with a solubility (kinetic) of 55.3 µg/mL (≈ 148 µM).
In the case of `CC(C)(C#N)NC(=O)C(=O)c1c(-c2ccccc2)cc2ccccn12`, the solubility (kinetic) is > 49.7 µg/mL.
The compound `CCCCCc1ccc(CC(=O)N2CCOCC2)cc1` gave a solubility (kinetic) of 38.6 µg/mL (≈ 140 µM).
The result for `O=C(N/N=C/c1ccncc1)C12CC3CC(CC(C3)C1)C2` reads > 42.5 µg/mL; that for `O=C(/C=C/c1cccnc1)c1ccc(F)c(F)c1`, 27.8 µg/mL (≈ 113 µM); that for `Cc1cccnc1NC(=O)CCNC(=O)c1ccc(Cl)cc1`, > 47.7 µg/mL.
As to `CC(=O)Nc1ccc2c(c1)C(=O)N(c1cccc3ccccc13)C2=O`, the solubility (kinetic) was found to be 8.2 µg/mL (≈ 24.8 µM).
Take `Cc1nc2ccc(NC(=O)c3ccc([N+](=O)[O-])cc3)cc2[nH]1`: the solubility (kinetic) turned out to be 30.6 µg/mL (≈ 103 µM).
Compound `Cc1ccc(N=C2C(=O)Nc3ccccc32)cc1` gave a solubility (kinetic) of 30.5 µg/mL (≈ 129 µM).
The compound `CN(C(=O)c1ccco1)c1nc(-c2ccc(Cl)cc2)cs1` yielded a solubility (kinetic) of 0.9 µg/mL (≈ 2.82 µM).
The result for `Cc1ccccc1N1CC2=C(C1=O)C(c1ccccc1)NC(=O)N2C` (stereo not drawn) reads 0.5 µg/mL (≈ 1.5 µM); that for `CC1CCCN(Cc2ccc(OCc3ccccc3)cc2)C1` (stereo not drawn), 31.5 µg/mL (≈ 107 µM).
`O=C(COc1ccccc1Cl)NCCNC(=O)c1ccncc1`: the kinetic solubility is > 50.1 µg/mL.
The result for `Cc1ccc(S(=O)(=O)NC2CCCCCC2)cc1` reads > 40.1 µg/mL.
The result for `CCOc1ccc(NC(=O)c2ccc(CC)s2)c([N+](=O)[O-])c1` reads < 0.3 µg/mL; that for `CCCC(=O)Nc1cc(C)cn(Cc2c(F)cccc2Cl)c1=O`, 41.3 µg/mL (≈ 123 µM).
The result for `Cn1c(=O)[nH]c(=O)c2c1nc(NCCN)n2CCOc1ccccc1` reads 49.1 µg/mL (≈ 143 µM); that for `C=CCNC(=O)COc1c(C)ccc(C)c1C`, > 35 µg/mL; that for `O=C(CSc1ccccc1F)NCC(c1cccs1)N1CCOCC1` (stereo not drawn), > 57.1 µg/mL.
For the compound `CNC(=O)C(NC(=O)c1ccccc1)=C(C)C`, the kinetic solubility was > 34.8 µg/mL.
The result for `CC(NC1=NCCS1)c1ccccc1` (stereo not drawn) reads 30.4 µg/mL (≈ 147 µM); that for `CCCN1C2CCCC1CC(NC(=S)NCCCOCC)C2` (stereo not drawn), > 49.1 µg/mL; that for `O=C(O)Cn1cc(CN2CCOCC2)c2ccccc21`, 30 µg/mL (≈ 109 µM).
Then `Cn1ccnc1COc1ccc(C=O)cc1`, with > 32.4 µg/mL; and `COCCNC(=O)c1cc(Sc2nnc(C)s2)nc2ccccc12`, with > 54.1 µg/mL; and `CC(C)(C)NC(=O)c1cccnc1Sc1ccccc1`, with > 43 µg/mL.
The result for `CN(C)Cc1c(O)ccc2c1O/C(=C\C=C\c1ccccc1)C2=O` reads 46.8 µg/mL (≈ 146 µM).
For `O=C(Cn1ccc([N+](=O)[O-])n1)NCc1cccnc1`, the kinetic solubility was > 39.2 µg/mL.
The result for `O=C(NCCCNC(=O)c1ccco1)c1cccc(F)c1` reads > 43.5 µg/mL; that for `CCc1ccc(OCC(=O)NC2CC(C)(C)NC(C)(C)C2)cc1`, 44 µg/mL (≈ 138 µM); that for `CC(=NCc1cccnc1)c1c(O)n(-c2ccc(Cl)cc2)c(=O)[nH]c1=O`, 2 µg/mL (≈ 5.39 µM).
The result for `Cc1cccc(-c2nc(Nc3ccc(O)cc3)c3ccccc3n2)c1` reads 5.8 µg/mL (≈ 17.7 µM); that for `CSCC[C@H](NC(=O)Nc1ccc(Oc2ccccc2)cc1)C(=O)O`, > 54.1 µg/mL; that for `Cc1cccc(C(=O)N[C@H](C(=O)Nc2ccc3c(c2)OCO3)C(C)C)c1`, 5.5 µg/mL (≈ 15.5 µM).
For the compound `Cc1cc(=O)[nH]c(SCC(=O)N2C(C)CCCC2C)n1` (stereo not drawn), the solubility (kinetic) was 38.3 µg/mL (≈ 130 µM).
Then `NCCc1cnc[nH]1`, with 14.1 µg/mL (≈ 127 µM); and `CN1CCCN(C(=O)COc2cccc(C(F)(F)F)c2)CC1`, with > 47.4 µg/mL.
Compound `CC1CCCCN1S(=O)(=O)c1ccc([N+](=O)[O-])cc1` (stereo not drawn) gave a kinetic solubility of 22.5 µg/mL (≈ 79.1 µM).
With `CCCc1cc(=O)c2ccc(OC/C(C)=N/O)cc2o1`, the kinetic solubility was determined as 38.3 µg/mL (≈ 139 µM).
Then `O=C(NC12CC3CC(CC(C3)C1)C2)c1c(Cl)cccc1Cl`, with < 0.7 µg/mL.
Take `Cc1[nH]c(=S)c(C#N)c(C)c1CCC#N`: the solubility (kinetic) is > 32.6 µg/mL.
With `CC(=O)N(C)N(C)c1cc(C)nc(N)n1`, the solubility (kinetic) is > 31.4 µg/mL.
Then `CCN(CC(=O)Nc1cccc(OC)c1)C(=O)c1ccco1`, with > 45.3 µg/mL; and `NC(=O)NC(=O)COC(=O)c1ccc2noc(-c3ccccc3)c2c1`, with 5.2 µg/mL (≈ 15.3 µM).
`O=C(CN1C(=O)NC2NC(=O)NC21)N/N=C/c1ccccc1F` (stereo not drawn): the kinetic solubility is > 48 µg/mL.
Then `C/C(O)=C(\C#N)P(=O)(c1ccccc1)c1ccccc1`, with > 42.5 µg/mL; and `CC1(C)CC(=O)c2sc(NS(=O)(=O)c3ccc(Cl)cc3)nc2C1`, with > 55.6 µg/mL.
Then `CC(=O)c1cccc(NC(=O)Nc2ccc3c(c2)OCO3)c1`, with 3.1 µg/mL (≈ 10.4 µM); and `CCC(/C=N/NC(=O)c1ccccc1F)CC`, with > 35.4 µg/mL.
Then `O=C1c2cccc3cccc(c23)C(=O)N1Cc1ccccc1`, with < 0.6 µg/mL; and `Cc1ccc(S(=O)(=O)N2CCN(C(=O)N3CCCC3)CC2)cc1`, with 48.7 µg/mL (≈ 144 µM).
In turn, `O=C(Nc1cc(C(=O)N2CCN(c3ccccc3)CC2)ccc1Cl)c1cccs1` yielded a solubility (kinetic) of 4.8 µg/mL (≈ 11.3 µM).
The result for `COc1ccc(NC(=O)/C(C#N)=C/c2cccnc2)c(OC)c1` reads 24.8 µg/mL (≈ 80.2 µM); that for `Brc1cc2c(cc1CSc1ncccn1)OCO2`, 0.9 µg/mL (≈ 2.77 µM).
As to `COc1cc(CNc2ccc3[nH]c(=O)[nH]c3c2)ccc1OCC(=O)NC(C)(C)C`, the kinetic solubility came out at 52.3 µg/mL (≈ 131 µM).
As to `O=C(COC(=O)c1ccccc1Br)NC1CCCC1`, the solubility (kinetic) was > 48.9 µg/mL.
Then `NS(=O)(=O)c1cccc(NC(=O)COC(=O)CC2Sc3ccccc3NC2=O)c1` (stereo not drawn), with 32.5 µg/mL (≈ 74.6 µM).
The result for `O=c1ccnc(Nc2ccc([N+](=O)[O-])cc2)[nH]1` reads > 34.8 µg/mL; that for `COc1ccc(OC)c(/C=C/c2[nH]c(=O)[nH]c(=O)c2[N+](=O)[O-])c1`, 35.1 µg/mL (≈ 110 µM).
Then `CCOc1cc(C(=O)OC(C(=O)NC(=O)NC)c2ccccc2)ccc1OCC(=O)N1CCOCC1` (stereo not drawn), with 11.4 µg/mL (≈ 22.8 µM).
Take `CC(=O)Nc1ccc(/C=C/c2noc(-c3ccccc3O)n2)cc1`: the solubility (kinetic) was < 0.2 µg/mL.
The result for `CNc1nc(-c2ccccc2)cc(-c2ccccc2)n1` reads 1.4 µg/mL (≈ 5.36 µM); that for `CCn1cc([N+](=O)[O-])c(C(=O)N2CCCc3ccccc32)n1`, > 45 µg/mL.
The result for `CCCCC(=O)Nc1cnc(NC(=O)c2cccs2)cc1C` reads > 47.6 µg/mL; that for `O=S(=O)(c1ccc(F)cc1)N1CCN(CCOc2ccccc2)CC1`, 41.1 µg/mL (≈ 113 µM); that for `O=C(NC(=S)Nc1ccc2oc(=O)ccc2c1)c1ccccc1F`, 1.4 µg/mL (≈ 4.09 µM).
The result for `CCC(CO)NCC(O)COCc1ccc2c(c1)OCO2` (stereo not drawn) reads > 44.6 µg/mL; that for `c1ccc(-c2cc(N3CCCCC3)c3ccccc3n2)cc1`, < 0.3 µg/mL.

These data come from PubChem BioAssay AID1996.
